Consider one substance from US6340573B1, “Chromogenic substrates for detecting bacterial hydrolases” (Bio Merieux, priority 1998, dated 2002).

This experiment has as its system Alanine-aminopeptidase. Description: GRAM identification with impregnated bottle brush. In kind it is cell-based, Gram-negative bacteria. Conditions: for coloration intensity: semiquantitative scale up to 4. The source says: According to a representative example, the GRAM identification process uses a substrate based on aminobenzene or a derivative thereof, such as DiMethyl-paraPhenyleneDiamine (DMpPD). In the example which follows, the substrate consists of Alanine-Dimethyl-paraPhenyleneDiamine (AlaDMpPD).
It functions as follows. Enzymatic hydrolysis causes release of the DMpPD group. Next, the DMPD binds with α-naphthol (or a derivative) by oxidative coupling facilitated by an oxidizing agent, potassium ferricyanide (K3Fe(CN)6). This then causes formation of a violet-gray complex.
Another device has been defined, which is even more specific in Gram identification and which can also be used with blood agars of Columbia type. It consists of:
a medium consisting of a blood agar of Columbia type (with or without AlaDMpPD), and
a reaction mixture which impregnates a bottle brush and which is constituted on the basis of α-naphthol, potassium ferricyanide and AlaDMpPD and then dried.
This reaction mixture contained in the bottle brush was further improved by adding a step of drying the bottle brushes, which facilitates their subsequent manipulation.
The exact composition is as follows:
for the agar, presence or absence of AlaDMpPD at 0.075 gram per liter (g/l), and
α-naphthol from 0.01 to 5 g/l, preferably from 0.1 to 1 g/l, and for example 0.5 g/l,
potassium ferricyanide from 0.01 to 5 g/l, preferably from 0.1 to 1 g/l, and for example 0.5 g/l, and
AlaDMpPD from 0.01 to 5 g/l, preferably from 0.1 to 1 g/l, and for example 0.35 g/l.
The results obtained in terms of sensitivity and specificity are thus the best obtained. In this case, the detection of the reaction is not instantaneous. It takes 15 to 30 seconds (s) to observe the appearance of any coloration, this being the time required for hydrolysis of the substrate by the bacterial aminopeptidase. […]

Regarding “Alanine-Dimethyl-paraPhenyleneDiamine [AlaDMpPD]”, the coloration intensity result is given as “greater than 2” (Gram-negative bacteria except Pseudomonas) and “less than 1” (Gram-positive bacteria or false-positives except S. pyogenes). Further, the detection time (most Gram-positive bacteria or false-positives, apart from S. pyogenes) is recorded as greater than 10 s.
